Active and inactive are the calls of the source. The rule behind the calls is not given here.
Key:
Chikungunya virus [1] = assay: Antiviral activity against CHIKV S27 in green monkey Vero 76 cells assessed as reduction in virus yield measured after 3 days by Virus yield reduction assay; format: functional; details: S27, Vero 76, 72 h, time 3 day
[2] = Tmax in C57BL/6 mouse plasma at 10 mg/kg, po measured 4 hrs post dosing by LC-MS/MS; format: ADME, organism-based; details: in vivo
Cytochrome P450 2C9 = Cytochrome P450 2C9 (Homo sapiens, UniProt P11712); assay: Inhibition of CYP2C9 (unknown origin); format: ADME
Chikungunya virus [3] = assay: Antiviral activity against CHIKV infected in C57BL/6 mouse assessed as virus titers at 300 mg/kg/day, ip measured after 6 days post infection (reference value: 5.3+/0.3); format: functional; details: time 6 day
[4] = Half life in C57BL/6 mouse plasma at 2.5 mg/kg, iv measured upto 24 hrs post dosing by LC-MS/MS; format: ADME, organism-based; details: in vivo
[5] = Toxicity in C57BL/6 mouse model assessed as effect on CREAT level at 300 mg/kg/day, ip measured after 6 days post infection (reference value: 0.39 to 0.43); format: organism-based; details: in vivo, 144 h, time 6 day
Cytochrome P450 3A4 = Cytochrome P450 3A4 (Homo sapiens, UniProt P08684); assay: Inhibition of CYP3A4 (unknown origin); format: ADME
[6] = target: Voltage-gated inwardly rectifying potassium channel KCNH2 (Homo sapiens, UniProt Q12809); assay: Antagonist activity at recombinant hERG expressed in CHO-K1 cells by Electrophysiology; format: toxicity, cell-based
[7] = MRT in C57BL/6 mouse plasma at 2.5 mg/kg, iv measured upto 24 hrs post dosing by LC-MS/MS; format: ADME, organism-based; details: in vivo
[8] = Metabolic stability in human liver S9 fraction assessed as intrinsic clearance by HPLC-MS/MS analysis; format: ADME, subcellular
[9] = target: T1, Potassium voltage-gated channel subfamily KQT member 1 (Homo sapiens, UniProt P51787); assay: Antagonist activity at recombinant hKCNQ1/hmink expressed in CHO-K1 cells by Electrophysiology; format: toxicity, cell-based
T1 sequence (P51787 whole entry): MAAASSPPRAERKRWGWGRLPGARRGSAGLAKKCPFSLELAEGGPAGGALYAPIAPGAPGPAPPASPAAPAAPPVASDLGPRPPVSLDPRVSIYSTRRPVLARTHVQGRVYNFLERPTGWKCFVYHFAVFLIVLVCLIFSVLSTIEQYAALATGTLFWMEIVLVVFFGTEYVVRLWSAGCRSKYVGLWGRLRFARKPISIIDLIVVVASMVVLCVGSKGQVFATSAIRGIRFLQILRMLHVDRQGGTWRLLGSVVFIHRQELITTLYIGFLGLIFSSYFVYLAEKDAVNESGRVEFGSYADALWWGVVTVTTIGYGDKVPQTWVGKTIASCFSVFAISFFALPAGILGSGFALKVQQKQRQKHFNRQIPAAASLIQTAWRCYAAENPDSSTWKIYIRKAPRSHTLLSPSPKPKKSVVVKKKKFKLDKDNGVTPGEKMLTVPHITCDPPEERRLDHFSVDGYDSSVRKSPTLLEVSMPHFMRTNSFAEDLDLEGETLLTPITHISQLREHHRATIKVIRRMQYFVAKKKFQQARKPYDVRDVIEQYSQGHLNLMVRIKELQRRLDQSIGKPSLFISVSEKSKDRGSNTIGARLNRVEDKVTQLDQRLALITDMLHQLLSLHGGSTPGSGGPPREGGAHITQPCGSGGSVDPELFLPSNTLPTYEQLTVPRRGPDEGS

[10] = Metabolic stability in human liver microsomes assessed as intrinsic clearance by HPLC-MS/MS analysis; format: ADME, Microsome
[11] = Cytotoxicity against green monkey Vero 76 cells assessed as reduction in cell viability; format: toxicity, cell-based; details: chlorocebus sabaeus
Chikungunya virus [12] = assay: Antiviral activity against CHIKV infected in C57BL/6 mouse assessed as mouse survival at 300 mg/kg/day, ip measured after 6 days post infection; format: functional, organism-based; details: time 6.0 day
Kir2.1 = assay: Antagonist activity at hKir2.1 expressed in HEK293 cells by Electrophysiology; format: toxicity, cell-based; details: human, HEK293 cells expressing hKir2.1
[13] = MRT in C57BL/6 mouse plasma at 10 mg/kg, po measured upto 24 hrs post dosing by LC-MS/MS; format: ADME, organism-based; details: in vivo
[14] = Toxicity in C57BL/6 mouse model assessed as effect on AST level at 300 mg/kg/day, ip measured after 6 days post infection (reference value: 64 to 100); format: organism-based; details: in vivo, 144 h, time 6 day
Chikungunya virus [15] = assay: Antiviral activity against CHIKV infected in C57BL/6 mouse assessed as mouse survival at 100 mg/kg/day, ip measured after 6 days post infection; format: functional, organism-based; details: time 6.0 day
Chikungunya virus [16] = assay: Antiviral activity against CHIKV infected in C57BL/6 mouse assessed as footpad swelling at 300 mg/kg/day, ip measured after 6 days post infection (Rvb =40.9+/-12.4); format: functional; details: time 6 day
[17] = Metabolic stability in CD-1 mouse liver microsomes assessed as half life by HPLC-MS/MS analysis; format: ADME, Microsome
[18] = Toxicity in C57BL/6 mouse model assessed as effect on BUN level at 300 mg/kg/day, ip measured after 6 days post infection (reference value: 20 to 30); format: organism-based; details: in vivo, 144 h, time 6 day
[19] = Cmax in C57BL/6 mouse plasma at 10 mg/kg, po measured upto 24 hrs post dosing by LC-MS/MS; format: ADME, organism-based; details: in vivo

Sequence of Voltage-gated inwardly rectifying potassium channel KCNH2 (Q12809 whole entry): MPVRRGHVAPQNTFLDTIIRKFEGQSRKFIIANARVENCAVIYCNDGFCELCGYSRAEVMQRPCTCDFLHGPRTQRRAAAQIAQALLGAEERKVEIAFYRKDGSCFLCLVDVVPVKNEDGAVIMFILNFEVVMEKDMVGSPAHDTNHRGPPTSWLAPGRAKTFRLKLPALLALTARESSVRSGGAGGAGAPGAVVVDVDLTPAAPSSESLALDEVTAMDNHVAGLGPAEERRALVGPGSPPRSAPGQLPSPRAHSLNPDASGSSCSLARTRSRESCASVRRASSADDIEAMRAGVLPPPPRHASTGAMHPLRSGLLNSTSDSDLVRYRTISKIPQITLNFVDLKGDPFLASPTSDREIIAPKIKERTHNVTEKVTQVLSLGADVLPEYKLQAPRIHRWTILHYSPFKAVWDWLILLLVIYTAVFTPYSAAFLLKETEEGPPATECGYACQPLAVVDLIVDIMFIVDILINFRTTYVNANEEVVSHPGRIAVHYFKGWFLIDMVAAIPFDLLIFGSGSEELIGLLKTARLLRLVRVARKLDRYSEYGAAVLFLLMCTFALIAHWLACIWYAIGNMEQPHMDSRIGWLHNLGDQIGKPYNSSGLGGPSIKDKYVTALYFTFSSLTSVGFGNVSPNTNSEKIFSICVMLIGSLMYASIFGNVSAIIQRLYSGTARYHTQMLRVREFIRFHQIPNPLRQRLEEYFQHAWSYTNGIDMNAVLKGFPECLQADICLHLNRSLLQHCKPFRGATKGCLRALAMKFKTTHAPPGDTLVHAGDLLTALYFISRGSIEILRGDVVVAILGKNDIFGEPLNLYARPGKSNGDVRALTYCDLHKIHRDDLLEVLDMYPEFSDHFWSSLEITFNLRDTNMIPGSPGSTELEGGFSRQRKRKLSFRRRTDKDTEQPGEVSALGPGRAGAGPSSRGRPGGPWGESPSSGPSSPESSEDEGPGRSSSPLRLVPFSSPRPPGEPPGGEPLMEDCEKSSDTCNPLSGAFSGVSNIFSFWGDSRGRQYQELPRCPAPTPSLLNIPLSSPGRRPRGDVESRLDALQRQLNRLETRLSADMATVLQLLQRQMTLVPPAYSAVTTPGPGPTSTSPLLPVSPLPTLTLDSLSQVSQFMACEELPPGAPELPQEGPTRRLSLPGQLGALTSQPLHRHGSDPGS
Sequence of Cytochrome P450 3A4 (P08684 whole entry): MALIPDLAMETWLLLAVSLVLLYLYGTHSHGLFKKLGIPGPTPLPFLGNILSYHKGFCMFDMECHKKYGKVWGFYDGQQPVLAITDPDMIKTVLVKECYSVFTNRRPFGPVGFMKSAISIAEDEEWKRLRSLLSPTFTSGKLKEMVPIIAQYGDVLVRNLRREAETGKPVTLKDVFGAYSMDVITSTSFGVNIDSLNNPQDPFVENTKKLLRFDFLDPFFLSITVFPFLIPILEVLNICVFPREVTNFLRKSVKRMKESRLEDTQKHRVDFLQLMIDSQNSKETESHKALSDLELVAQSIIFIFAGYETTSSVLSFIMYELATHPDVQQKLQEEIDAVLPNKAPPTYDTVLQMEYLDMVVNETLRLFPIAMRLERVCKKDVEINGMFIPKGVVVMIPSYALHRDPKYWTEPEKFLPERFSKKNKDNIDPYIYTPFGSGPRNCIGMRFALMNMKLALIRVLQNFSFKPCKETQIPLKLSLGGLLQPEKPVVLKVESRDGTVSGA
Sequence of Cytochrome P450 2C9 (P11712 whole entry): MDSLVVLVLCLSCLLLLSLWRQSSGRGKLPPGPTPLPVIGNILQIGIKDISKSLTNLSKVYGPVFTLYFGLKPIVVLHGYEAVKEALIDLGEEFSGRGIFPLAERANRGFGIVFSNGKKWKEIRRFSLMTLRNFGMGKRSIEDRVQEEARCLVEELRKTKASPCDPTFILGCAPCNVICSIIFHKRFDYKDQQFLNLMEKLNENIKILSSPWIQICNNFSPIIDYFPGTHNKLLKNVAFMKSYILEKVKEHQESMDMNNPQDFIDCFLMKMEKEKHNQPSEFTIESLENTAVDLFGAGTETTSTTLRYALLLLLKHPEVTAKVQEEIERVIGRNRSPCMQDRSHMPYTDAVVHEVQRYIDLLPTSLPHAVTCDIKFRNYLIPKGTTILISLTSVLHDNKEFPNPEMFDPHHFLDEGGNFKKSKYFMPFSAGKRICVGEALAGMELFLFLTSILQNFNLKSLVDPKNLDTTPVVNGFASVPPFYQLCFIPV

Q: For `CC1CCNc2c(C(=O)NC/C=C/S(C)(=O)=O)cccc21` (configuration not stated), which EC90 (Chikungunya virus [1]) is on record?
A: The EC90 was 1.6 µM.

Q: And the Tmax [2]?
A: Its Tmax is 4 h.

Q: What about the IC50 (Cytochrome P450 2C9) of the same molecule?
A: The IC50 was greater than 100 µM.

Q: What about the Activity (Chikungunya virus [3]) of the same molecule?
A: The Activity was 5.3.

Q: And the t1/2 [4]?
A: Its t1/2 is 6 min.

Q: And the Activity [5]?
A: Its Activity is 0.35 mg/dL.

Q: And the IC50 (Cytochrome P450 3A4)?
A: Its IC50 is greater than 100 µM.

Q: And the IC50 [6]?
A: Its IC50 is greater than 100 µM.

Q: And the MRT [7]?
A: The MRT was 3.6 min.

Q: What about the CLH [8] of the same molecule?
A: The CLH was 22.7 µL/min/mg.

Q: What about the IC50 [9] of the same molecule?
A: Its IC50 is greater than 100 µM.

Q: What about the CLH [10] of the same molecule?
A: The CLH was less than 57.8 µL/min/mg.

Q: And the CC50 [11]?
A: The CC50 was greater than 50 µM.

Q: And the Survival (Chikungunya virus [12])?
A: The Survival was “Active”.

Q: What about the IC50 (Kir2.1) of the same molecule?
A: Its IC50 is greater than 100 µM.

Q: What about the MRT [13] of the same molecule?
A: The MRT was 4.25 h.

Q: What about the Activity [14] of the same molecule?
A: Its Activity is 64 U/L.

Q: And the Survival (Chikungunya virus [15])?
A: Its Survival is “Active”.

Q: What about the Activity (Chikungunya virus [16]) of the same molecule?
A: Its Activity is 14.1%.

Q: What about the t1/2 [17] of the same molecule?
A: Its t1/2 is greater than 2 h.

Q: What about the Activity [18] of the same molecule?
A: The Activity was 18 mg/dL.

Q: And the Cmax [19]?
A: Its Cmax is 125 ng/mL.

Source: ChEMBL document CHEMBL6071156 (Eur J Med Chem, 2024)
